Source: patent US8575158B2, “1-phenyl-substituted heterocyclyl derivatives and their use as prostaglandin D2 receptor modulators” (Actelion Pharmaceuticals Ltd., priority 2010, dated 2013)
pIC50: −log10 of the molar value.

Target: T1, hCRTH2 receptor (Homo sapiens, UniProt Q9Y5Y4)
T1 construct: expressed in transfected cells; host or cells: HEK293
T1 sequence (Q9Y5Y4 1-395): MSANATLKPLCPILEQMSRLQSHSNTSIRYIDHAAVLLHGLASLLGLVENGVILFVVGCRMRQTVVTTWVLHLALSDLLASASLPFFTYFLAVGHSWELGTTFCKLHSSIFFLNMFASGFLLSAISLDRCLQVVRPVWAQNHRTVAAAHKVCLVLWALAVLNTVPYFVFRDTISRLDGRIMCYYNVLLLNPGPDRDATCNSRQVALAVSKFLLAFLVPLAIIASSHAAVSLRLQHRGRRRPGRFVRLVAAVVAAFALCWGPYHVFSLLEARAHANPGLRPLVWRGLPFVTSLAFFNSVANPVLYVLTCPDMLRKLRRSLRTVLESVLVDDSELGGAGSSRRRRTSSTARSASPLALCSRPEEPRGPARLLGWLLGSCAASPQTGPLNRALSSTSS
Assay: Radioligand displacement assay (3H-PGD2) on hCRTH2 receptor membranes
Assay type: binding
Conditions: antagonistic activity

[1] = 3H-PGD2 displacement on HEK293-hCRTH2 membrane fragments
[2] = 3H-PGD2 radioligand displacement, HEK293-hCRTH2 membranes

Structure (SMILES)	pIC50 [1]	pIC50 [2]	other results
O=C(O)COc1ccc(F)cc1C1c2ccccc2CCN1C(=O)[C@@H]1C[C@H]1c1ccccc1 (mixture of isomers) [Example 67, (±)-{4-Fluoro-2-[2-(trans-2-phenyl-cyclopropanecarbonyl)-1,2,3,4-tetrahydro-isoquinolin-1-yl]-phenoxy}-acetic acid]	7.81	–	–
O=C(O)COc1ccc(F)cc1C1c2ccccc2CCN1C(=O)NCCc1ccccc1Cl (racemic) [Example 204, (±)-(2-{2-[2-(2-Chloro-phenyl)-ethylcarbamoyl]-1,2,3,4-tetrahydro-isoquinolin-1-yl}-4-fluoro-phenoxy)-acetic acid]	7.08	–	–
O=C(O)COc1ccc(F)cc1C1c2ccccc2CCN1C(=O)Cn1ccc2ccccc21 (racemic) [Example 61, (±)-{4-Fluoro-2-[2-(2-indol-1-yl-acetyl)-1,2,3,4-tetrahydro-isoquinolin-1-yl]-phenoxy}-acetic acid]	6.07	–	–
Cc1ccc(COCC(=O)N2CCc3ccccc3C2c2cc(F)ccc2OCC(=O)O)cc1 (racemic) [Example 194]	7.04	–	–
O=C(O)COc1ccc(Cl)cc1[C@@H]1c2ccccc2CCN1C(=O)[C@@H]1C[C@H]1c1ccccc1 [Example 232, {4-Chloro-2-[(S)-2-((1R,2R)-2-phenyl-cyclopropanecarbonyl)-1,2,3,4-tetrahydro-isoquinolin-1-yl]-phenoxy}-acetic acid]	8.86	–	–
Cc1ccc(CCC(=O)N2CCc3ccccc3C2c2cc(Cl)ccc2OCC(=O)O)c(C)n1 (racemic) [Example 455]	–	6.70	–
Cc1nn(CCC(=O)N2Cc3ccccc3C2c2cc(Cl)ccc2OCC(=O)O)c2cc(F)ccc12 (single isomer, unassigned) [Example 541, (4-Chloro-2-{2-[3-(6-fluoro-3-methyl-indazol-1-yl)-propionyl]-2,3-dihydro-1H-isoindol-1-yl}-phenoxy)-acetic acid]	–	6.06	–
Cc1ccc(OCC(=O)N2CCc3cc(F)ccc3C2c2cc(Cl)ccc2OCC(=O)O)c(C)n1 (racemic) [Example 432]	–	7.39	–
Cc1nc(CC(=O)N2CCc3ccccc3C2c2cc(F)ccc2OCC(=O)O)cs1 (racemic) [Example 57, (±)-(4-Fluoro-2-{2-[2-(2-methyl-thiazol-4-yl)-acetyl]-1,2,3,4-tetrahydro-isoquinolin-1-yl}-phenoxy)-acetic acid]	6.14	–	–
O=C(O)COc1cc(F)c(F)cc1C1c2ccccc2CCN1C(=O)OCc1ccccc1 (racemic) [Example 6, (±)-1-(2-Carboxymethoxy-4,5-difluoro-phenyl)-3,4-dihydro-1H-isoquinoline-2-carboxylic acid benzyl ester]	7.52	–	–
N#Cc1ccc2c(ccn2CCC(=O)N2CCc3ccccc3C2c2cc(Cl)ccc2OCC(=O)O)c1 (racemic) [Example 371]	–	7.27	–
O=C(O)COc1ccc(Cl)cc1C1c2ccccc2CCN1C(=O)OCc1cc(F)ccc1F (racemic) [Example 258]	8.12	–	–
Cc1ccccc1/C=C/C(=O)N1CCc2ccccc2C1c1cc(F)ccc1OCC(=O)O (racemic) [Example 142, (±)-{4-Fluoro-2-[2-((E)-3-o-tolyl-acryloyl)-1,2,3,4-tetrahydro-isoquinolin-1-yl]-phenoxy}-acetic acid]	6.46	–	–
O=C(O)COc1ccc(Cl)cc1C1c2ccccc2CCN1C(=O)[C@@H]1C[C@H]1c1ccc(Cl)cc1 (mixture of isomers) [Example 157]	7.34	–	–
Cc1csc(COC(=O)N2CCc3ccccc3[C@H]2c2cc(Cl)ccc2OCC(=O)O)n1 [Example 276, (S)-1-(2-Carboxymethoxy-5-chloro-phenyl)-3,4-dihydro-1H-isoquinoline-2-carboxylic acid 4-methyl-thiazol-2-ylmethyl ester]	8.74	–	–
Cc1nnnn1-c1ccc(CC(=O)N2CCc3ccccc3C2c2cc(F)ccc2OCC(=O)O)cc1 (racemic) [Example 55, (±)-[4-Fluoro-2-(2-{2-[4-(5-methyl-tetrazol-1-yl)-phenyl]-acetyl}-1,2,3,4-tetrahydro-isoquinolin-1-yl)-phenoxy]-acetic acid]	6.10	–	–
O=C(O)COc1ccc(Cl)cc1C1c2cccc(F)c2CCN1C(=O)C#Cc1ccccc1 (racemic) [Example 122, (±)-{4-Chloro-2-[5-fluoro-2-(3-phenyl-propynoyl)-1,2,3,4-tetrahydro-isoquinolin-1-yl]-phenoxy}-acetic acid]	6.71	–	–
Cc1c(C)n(CCC(=O)N2CCc3ccccc3C2c2cc(Cl)ccc2OCC(=O)O)c2ccccc12 (racemic) [Example 389]	–	7.15	–
Cc1ccc(OCC(=O)N2CCc3ccccc3C2c2cc(Cl)ccc2OCC(=O)O)c(C)n1 (racemic) [Example 75, (±)-(4-Chloro-2-{2-[2-(2,6-dimethyl-pyridin-3-yloxy)-acetyl]-1,2,3,4-tetrahydro-isoquinolin-1-yl}-phenoxy)-acetic acid]	8.43	–	–
O=C(O)COc1ccc(F)cc1C1c2ccc(F)cc2CCN1C(=O)OCc1ccccc1 (racemic) [Example 163]	8.38	–	–

Structure (SMILES)	pIC50 [1]	pIC50 [2]	other results
Cc1[nH]c2ccccc2c1CCC(=O)N1CCc2ccccc2C1c1cc(Cl)ccc1OCC(=O)O (racemic) [Example 73, (±)-(4-Chloro-2-{2-[3-(2-methyl-1H-indol-3-yl)-propionyl]-1,2,3,4-tetrahydro-isoquinolin-1-yl}-phenoxy)-acetic acid]	8.38	–	–
O=C(O)COc1ccc(Cl)cc1C1c2ccccc2CCN1C(=O)OCc1ccc(F)cc1F (racemic) [Example 248]	8.48	–	–
Cc1nn(CCC(=O)N2Cc3ccccc3C2c2cc(Cl)ccc2OCC(=O)O)c2cc(Cl)ccc12 (single isomer, unassigned) [Example 542, (4-Chloro-2-{2-[3-(6-chloro-3-methyl-indazol-1-yl)-propionyl]-2,3-dihydro-1H-isoindol-1-yl}-phenoxy)-acetic acid]	–	6.06	–
O=C(O)COc1ccc(Cl)cc1C1c2ccccc2CCN1C(=O)OCc1ccccc1C(F)(F)F (racemic) [Example 236]	8.25	–	–
O=C(O)COc1ccc(Cl)cc1C1c2ccccc2CCN1C(=O)CSc1cnnn1-c1ccccc1 (racemic) [Example 162]	6.94	–	–
CS(=O)(=O)c1cccc2c1CCN(C(=O)OCc1ccccc1)C2c1cc(F)ccc1OCC(=O)O (racemic) [Example 185]	7.10	–	–
O=C(COc1ccc(Cl)cc1[C@@H]1c2ccccc2CCN1C(=O)OCc1ccccc1)NO [Example 569, (S)-1-(5-Chloro-2-hydroxycarbamoylmethoxy-phenyl)-3,4-dihydro-1H-isoquinoline-2-carboxylic acid benzyl ester]	–	–	pIC50 (radioligand displacement (3H-PGD2), hCRTH2 receptor membranes): 6.92
O=C(O)COc1ccc(F)cc1[C@@H]1c2ccccc2CCN1C(=O)[C@@H]1C[C@H]1c1ccccc1 (single isomer, unassigned) [Example 29]	8.11	–	–
Cc1ccc(COC(=O)N2CCc3ccccc3C2c2cc(Cl)ccc2OCC(=O)O)cc1 (racemic) [Example 360]	–	7.73	–
O=C(O)COc1ccc(Cl)cc1[C@@H]1c2ccccc2CCN1C(=O)OCc1cnccn1 [Example 282, (S)-1-(2-Carboxymethoxy-5-chloro-phenyl)-3,4-dihydro-1H-isoquinoline-2-carboxylic acid pyrazin-2-ylmethyl ester]	8.40	–	–
O=C(O)COc1ccc(Cl)cc1[C@@H]1c2ccc(F)cc2CCN1C(=O)OCCc1ccccc1 [Example 335, (S)-1-(2-Carboxymethoxy-5-chloro-phenyl)-6-fluoro-3,4-dihydro-1H-isoquinoline-2-carboxylic acid phenethyl ester]	–	7.88	–
Cc1ccccc1[C@@H]1C[C@H]1C(=O)N1CCc2cc(F)ccc2C1c1cc(Cl)ccc1OCC(=O)O (mixture of isomers) [Example 431]	–	8.45	–
O=C(O)COc1ccc(Cl)cc1C1c2ccccc2CCN1C(=O)COc1ccccc1 (racemic) [Example 409]	–	7.13	–
O=C(O)COc1ccc(Cl)cc1[C@@H]1c2ccc(F)c(F)c2CCN1C(=O)OCn1ncc2ccccc21 [Example 322, (S)-1-(2-Carboxymethoxy-5-chloro-phenyl)-5,6-difluoro-3,4-dihydro-1H-isoquinoline-2-carboxylic acid indazol-1-ylmethyl ester]	–	9.28	–
O=C(O)COc1ccc(Cl)cc1C1c2ccccc2CCN1C(=O)CCCc1ccc(F)cc1 (racemic) [Example 103, (±)-(4-Chloro-2-{2-[4-(4-fluoro-phenyl)-butyryl]-1,2,3,4-tetrahydro-isoquinolin-1-yl}-phenoxy)-acetic acid]	7.95	–	–
O=C(O)COc1ccc(Cl)cc1C1c2ccccc2CCN1C(=O)Cc1c[nH]c2ccc(F)cc12 (racemic) [Example 91, (±)-(4-Chloro-2-{2-[2-(5-fluoro-1H-indol-3-yl)-acetyl]-1,2,3,4-tetrahydro-isoquinolin-1-yl}-phenoxy)-acetic acid]	6.95	–	–
Cc1cccc(CCCC(=O)N2CCc3ccccc3C2c2cc(Cl)ccc2OCC(=O)O)c1 (racemic) [Example 110, (±)-{4-Chloro-2-[2-(4-m-tolyl-butyryl)-1,2,3,4-tetrahydro-isoquinolin-1-yl]-phenoxy}-acetic acid]	7.39	–	–
Cc1[nH]c2ccccc2c1CCC(=O)N1Cc2ccccc2C1c1cc(Cl)ccc1OCC(=O)O (racemic) [Example 510]	–	6.74	–
N#Cc1ccc(OCC(=O)O)c([C@@H]2c3ccccc3CCN2C(=O)OCc2ccccc2)c1 [Example 25, (S)-1-(2-Carboxymethoxy-5-cyano-phenyl)-3,4-dihydro-1H-isoquinoline-2-carboxylic acid benzyl ester]	8.60	–	–
